In patent US20100305120A1, “COMPOUNDS FOR TREATING MUSCULAR DYSTROPHY” (BIOMARIN IGA LIMITED, priority 2008, published 2010):

Each molecule was assayed on Utrophin A promoter linked to a luciferase reporter gene (assay: Luciferase reporter assay (murine H2K cells), H2K/mdx/Utro A reporter cell line). Settings: 48 h; test compound concentration 3 μM; mdx mouse H2K Utrophin A reporter cells; read-out: Activity (luciferase level relative to control).
Assay type: cell-based
Summary of the method: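 Immortalized mdx mouse H2K myoblasts stably carrying ~5 kb utrophin A promoter–luciferase construct, kept at 33 °C, 10% CO2. Compound added 24 h after plating, typically at 10 μM final, for 48 h; luciferase measured by cell lysis and luminescence.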
Work on `CS(=O)(=O)c1ccc(Cn2nc(C(=O)Nc3ccc(O)cc3)c3ccccc32)cc1` [Compound 88, N-(4-hydroxyphenyl)-1-(4-(methylsulfonyl)benzyl)-1H-indazole-3-carboxamide] yielded an activity at 3 µM of under 200%.

Same assay, conditions: 48 h; test compound concentration 10 μM; mdx mouse H2K Utrophin A reporter cells; read-out: Activity (luciferase level relative to control)
`O=C(NCC1CCCO1)c1nn(Cc2ccc(C(=O)N3CCOCC3)cc2)c2ccccc12` (centres unmarked) [Compound 72, 1-(4-(morpholine-4-carbonyl)benzyl)-N-((tetrahydrofuran-2-yl)methyl)-1H-indazole-3-carboxamide] gave an activity at 10 µM of under 200%. In the case of `O=C(Nc1nccs1)c1nn(CCOc2ccccc2)c2ccccc12` [Compound 71, 1-(2-phenoxyethyl)-N-(thiazol-2-yl)-1H-indazole-3-carboxamide], the activity at 10 µM is reported as under 200%. Molecule `CS(=O)(=O)c1ccc(Cn2nc(C(=O)Nc3ccc4occc4c3)c3ccccc32)cc1` [Compound 120, N-(benzofuran-5-yl)-1-(4-(methylsulfonyl)benzyl)-1H-indazole-3-carboxamide] has an activity at 10 µM of 301 to 400%. Molecule `NC(=O)c1ccc(NC(=O)c2nn(Cc3ccc(S(=O)(=O)N4CCOCC4)cc3)c3ccccc23)cc1` [Compound 64, N-(4-carbamoylphenyl)-1-(4-(morpholinosulfonyl)benzyl)-1H-indazole-3-carboxamide] has an activity at 10 µM of under 200%. Work on `CS(=O)(=O)c1ccc(Cn2nc(C(=O)Nc3ccccc3)c3ccccc32)cc1` [Compound 83, N-phenyl-1-(4-(methylsulfonyl)benzyl)-1H-indazole-3-carboxamide] yielded an activity at 10 µM of under 200%. `CON(C)S(=O)(=O)c1ccc(Cn2nc(C(=O)Nc3nc4ccccc4s3)c3ccccc32)cc1` [Compound 1, N-(benzo[d]thiazol-2-yl)-1-(4-(N-methoxy-N-methylsulfamoyl)benzyl)-1H-indazole-3-carboxamide] was tested, and the activity at 10 µM was under 200%. `CC(C)c1nsc(NC(=O)c2nn(Cc3ccc(S(C)(=O)=O)cc3)c3ccccc23)n1` [Compound 98, N-(3-isopropyl-1,2,4-thiadiazol-5-yl)-1-(4-(methylsulfonyl)benzyl)-1H-indazole-3-carboxamide] was tested, and the activity at 10 µM was under 200%. Work on `CC(C)(C)c1ccc(C(=O)n2nc(C(=O)Nc3ccc4c(c3)OCO4)c3ccccc32)cc1` [Compound 124, N-(benzo[d][1,3]dioxol-5-yl)-1-(4-tert-butylbenzoyl)-1H-indazole-3-carboxamide] yielded an activity at 10 µM of 301 to 400%. Work on `CC(C)(C)c1ccc(Cn2nc(C(=O)Nc3ccc(OC(F)(F)F)cc3)c3ccccc32)cc1` [Compound 70, 1-(4-tert-butylbenzyl)-N-(4-(trifluoromethoxy)phenyl)-1H-indazole-3-carboxamide] yielded an activity at 10 µM of under 200%. `O=C(Nc1ccc(N2CCCCC2)cc1)c1nn(CCCOc2ccccc2)c2ccccc12` [Compound 14, 1-(3-phenoxypropyl)-N-(4-(piperidin-1-yl)phenyl)-1H-indazole-3-carboxamide] was tested, and the activity at 10 µM was 301 to 400%. Molecule `CS(=O)(=O)c1ccc(Cn2nc(C(=O)Nc3ccc(N4CCCCC4)cc3)c3ccccc32)cc1` [Compound 18, 1-(4-(methylsulfonyl)benzyl)-N-(4-(piperidin-1-yl)phenyl)-1H-indazole-3-carboxamide] has an activity at 10 µM of 201 to 300%. Molecule `Cc1csc(NC(=O)c2nn(Cc3ccc(S(C)(=O)=O)cc3)c3ccccc23)n1` [Compound 126, 1-(4-(methylsulfonyl)benzyl)-N-(4-methylthiazol-2-yl)-1H-indazole-3-carboxamide] has an activity at 10 µM of under 200%. Work on `COC(=O)c1ccc(NC(=O)Nc2nn(Cc3ccc(COc4cccc(OC)c4)cc3)c3ccccc23)cc1` [Compound 11, methyl 4-(3-(1-(4-((3-methoxyphenoxy)methyl)benzyl)-1H-indazol-3-yl)ureido)benzoate] yielded an activity at 10 µM of under 200%. For `CS(=O)(=O)c1ccc(Cn2nc(C(=O)Nc3ccc4c(c3)CCCC4)c3ccccc32)cc1` [Compound 121, 1-(4-(methylsulfonyl)benzyl)-N-(5,6,7,8-tetrahydronaphthalen-2-yl)-1H-indazole-3-carboxamide], the activity at 10 µM was 201 to 300%. For `C#CCN(C)S(=O)(=O)c1ccc(Cn2nc(C(=O)Nc3ccc(N4CCCCC4)cc3)c3ccccc32)cc1` [Compound 6, 1-(4-(N-methyl-N-(prop-2-ynyl)sulfamoyl)benzyl)-N-(4-(piperidin-1-yl)phenyl)-1H-indazole-3-carboxamide], the activity at 10 µM was 301 to 400%. Molecule `COc1ccc(NC(=O)Nc2nn(Cc3ccc(COc4ccc5c(c4)OCO5)cc3)c3ccc(C(F)(F)F)cc23)c(OC)c1` [Compound 31, 1-(1-(4-((benzo[d][1,3]dioxol-5-yloxy)methyl)benzyl)-5-(trifluoromethyl)-1H-indazol-3-yl)-3-(2,4-dimethoxyphenyl)urea] has an activity at 10 µM of under 200%. For `CC(C)(C)c1ccc(NC(=O)c2nn(Cc3ccc(S(C)(=O)=O)cc3)c3ccccc23)cc1` [Compound 81, N-(4-tert-butylphenyl)-1-(4-(methylsulfonyl)benzyl)-1H-indazole-3-carboxamide], the activity at 10 µM was under 200%. For `CC(C)c1ccccc1NC(=O)c1nn(Cc2ccc(S(C)(=O)=O)cc2)c2ccccc12` [Compound 85, N-(2-isopropylphenyl)-1-(4-(methylsulfonyl)benzyl)-1H-indazole-3-carboxamide], the activity at 10 µM was under 200%. For `Cc1ccc(NC(=O)Nc2nn(Cc3ccc(C(F)(F)F)cc3)c3ccccc23)cc1` [Compound 59, 1-p-tolyl-3-(1-(4-(trifluoromethyl)benzyl)-1H-indazol-3-yl)urea], the activity at 10 µM was under 200%. Work on `O=C(Nc1ccc2c(c1)OCO2)c1nn(Cc2ccncc2)c2ccccc12` [Compound 97, N-(benzo[d][1,3]dioxol-5-yl)-1-(pyridin-4-ylmethyl)-1H-indazole-3-carboxamide] yielded an activity at 10 µM of under 200%. For `CS(=O)(=O)c1ccc(Cn2nc(C(=O)Nc3ccccn3)c3ccccc32)cc1` [Compound 77, 1-(4-(methylsulfonyl)benzyl)-N-(pyridin-2-yl)-1H-indazole-3-carboxamide], the activity at 10 µM was under 200%. For `CCS(=O)(=O)c1ccc(Cn2nc(C(=O)Nc3ccc4c(c3)OCO4)c3ccccc32)cc1` [Compound 156, N-(benzo[d][1,3]dioxol-5-yl)-1-(4-(ethylsulphonyl)benzyl)-1H-indazole-3-carboxamide], the activity at 10 µM was 201 to 300%. `O=C(Nc1ccc2c(c1)OCO2)c1nn(Cc2ccc(-c3ccccc3)cc2)c2ccccc12` [Compound 50, N-(benzo[d][1,3]dioxol-5-yl)-1-(biphenyl-4-ylmethyl)-1H-indazole-3-carboxamide] was tested, and the activity at 10 µM was under 200%. In the case of `CCN(CC)S(=O)(=O)c1ccc(Cn2nc(C(=O)Nc3ccccn3)c3ccccc32)cc1` [Compound 39, 1-(4-(N,N-diethylsulfamoyl)benzyl)-N-(pyridin-2-yl)-1H-indazole-3-carboxamide], the activity at 10 µM is reported as under 200%. `CN(C)C(=O)c1ccc(Cn2nc(C(=O)Nc3ccc4c(c3)OCO4)c3ccccc32)cc1` [Compound 117, N-(benzo[d][1,3]dioxol-5-yl)-1-(4-(dimethylcarbamoyl)benzyl)-1H-indazole-3-carboxamide] showed an activity at 10 µM of 201 to 300%. `C#CCN(C)S(=O)(=O)c1ccc(Cn2nc(C(=O)Nc3ccc(C(N)=O)cc3)c3ccccc32)cc1` [Compound 76, N-(4-carbamoylphenyl)-1-(4-(N-methyl-N-(prop-2-ynyl)sulfamoyl)benzyl)-1H-indazole-3-carboxamide] was tested, and the activity at 10 µM was under 200%. `COc1cccc(OCc2ccc(Cn3nc(NC(=O)Nc4ccccc4OC(F)(F)F)c4ccccc43)cc2)c1` [Compound 68, 1-(1-(4-((3-methoxyphenoxy)methyl)benzyl)-1H-indazol-3-yl)-3-(2-(trifluoromethoxy)phenyl)urea] showed an activity at 10 µM of under 200%. For `O=C(Nc1cccc(F)c1)Nc1nn(Cc2ccc(COc3ccc4c(c3)OCO4)cc2)c2ccc(C(F)(F)F)cc12` [Compound 9, 1-(1-(4-((benzo[d][1,3]dioxol-5-yloxy)methyl)benzyl)-5-(trifluoromethyl)-1H-indazol-3-yl)-3-(3-fluorophenyl)urea], the activity at 10 µM was under 200%.
